Source: publication PMC5488252, “Specificity Effects of Amino Acid Substitutions in Promiscuous Hydrolases: Context‐Dependence of Catalytic Residue Contributions to Local Fitness Landscapes in Nearby Sequence Space” (Chembiochem, 2017)
Counter-ions that a name gives are not always drawn.

Tests used:
[1] = tested on: AkAS; format: biochemical; details: 30 °C
[2] = tested on: T1, SaAS; test: 4-nitrophenolate release at […] nm; format: biochemical; details: 30 °C; Bis-Tris propane or SID buffer
T1 construct: pASK-IBA5plus (Strep-tag), E. coli TOP10; source organism not spelt out in this text

SMILES	Km [1] [mM]	Km [2] [mM]
O=[N+]([O-])c1ccc(OP(=O)(O)O)cc1 [compound 1, phosphate monoester 1]	17	–
O=[N+]([O-])c1ccc(OS(=O)(=O)O)cc1 [compound 4, sulfate monoester 4]	–	0.24
